Laboratory results: patent US20160220569A1, “CDK4/6 Inhibitor Dosage Formulations For The Protection Of Hematopoietic Stem And Progenitor Cells During Chemotherapy” (G1 Therapeutics, Inc., priority 2015, published 2016)
Like-named read-outs stand apart in the source and are kept apart here.

Assay: 14-day oral gavage toxicokinetic study in rats
Type: in vivo
Conditions: female, rat, plasma, po; for concentration at 1 h / concentration at 2 h / concentration at 4 h / concentration at 8 h / concentration at 12 h / concentration at 24 h / concentration at 0.5 h / concentration at […]: rats; for concentration at […]: Day 14, […]; for half-life: read-out: t½ (converted)
Procedure: Plasma was obtained from blood samples collected from rats in a composite sampling scheme, with 3 samples collected per sex, per dose, at each target collection time, as illustrated in Table 21 to Table 25. Samples were collected from the vehicle control group on Day 1 and Day 14 at 3 hour after administration. […] Blood samples were collected in tubes containing K3EDTA as an anticoagulant and placed on ice until processed to plasma via centrifugation. Samples were stored frozen at −80° C. until shipment to the bioanalytical laboratory for analysis.
The following parameters were determined:
Cmax: Maximum observed plasma concentration (ng/mL).
A value of 0 ng/mL was assigned to all values below the lower limit of quantitation (BLQ, <10.0 ng/mL).
AUC(0-inf): Area under the plasma concentration vs. time curve extrapolated from 0 to infinity (ng*h/mL), calculated as AUC(0-t)+AUC(t-inf) where AUC(t-inf) is calculated as last measurable concentration (CLast) divided by ke, where ke is the elimination rate constant determined by linear regression of the last three analytically measured points on the log plasma concentration vs. time curve. The selection criteria of the data points for inclusion in the calculation of ke required that at least three data points representing the terminal phase (after Tmax) were regressed and that R2≧0.850 when rounded.
CL: Clearance (L/h/kg), calculated as the dose divided by AUC(0-t).
Vd: Volume of distribution (L/kg), calculated as dose divided by the product of ke and AUC(0-inf).
Vdss: Steady state volume of distribution (L/kg), calculated as clearance […] mean residence time, where mean residence time is calculated as the area under the first moment curve divided by AUC(0-t).
t½: Elimination half-life (h), calculated as ln(2)/ke, where ke is the elimination rate constant determined by linear regression. Half-life was defined as not determined if regression criteria (specified in AUC(0-inf) above) were not met.
Cmax/Dose: Normalized Cmax, calculated as Cmax divided by total dose.
AUC/Dose: Normalized AUC, calculated as AUC(0-t) divided by total dose.
ii. Statistical Analysis Mean and standard deviation (SD) were calculated in Watson. Values of BLQ were assigned a value of 0 ng/mL for mean calculations. Concentration values and derived TK parameters were reported to three significant figures.

[1] = 2 mg/kg, oral 2 mg/kg, Study Day 1, Female
[2] = 2 mg/kg, oral 2 mg/kg, Study Day 14, Female
[3] = 5 mg/kg, oral 5 mg/kg, Study Day 1, Female
[4] = 5 mg/kg, oral 5 mg/kg, Study Day 14, Female

## CN1CCN(c2ccc(Nc3ncc4cc5n(c4n3)C3(CCCCC3)CNC5=O)nc2)CC1 [Compound 1, 2′-((5-(4-methylpiperazin-1-yl)pyridin-2-yl)amino)-7′,8′-dihydro-6′H-spiro[cyclohexane-1,9′-pyrazino[1′,2′:1,5]pyrrolo[2,3-d]pyrimidin]-6′-one]
2 mg/kg, Mean Compound 1 Plasma Concentration, oral 2 mg/kg, Day 1, 1 h, Female
  concentration at 1 h: 91.4 ng/mL
2 mg/kg, Mean Compound 1 Plasma Concentration, oral 2 mg/kg, Day 1, 2 h, Female
  concentration at 2 h: 196 ng/mL
2 mg/kg, Mean Compound 1 Plasma Concentration, oral 2 mg/kg, Day 1, 4 h, Female
  concentration at 4 h: 175 ng/mL
2 mg/kg, Mean Compound 1 Plasma Concentration, oral 2 mg/kg, Day 1, 8 h, Female
  concentration at 8 h: 96.7 ng/mL
2 mg/kg, Mean Compound 1 Plasma Concentration, oral 2 mg/kg, Day 1, 12 h, Female
  concentration at 12 h: 82.2 ng/mL
2 mg/kg, Mean Compound 1 Plasma Concentration, oral 2 mg/kg, Day 1, 24 h, Female
  concentration at 24 h: 13 ng/mL
2 mg/kg, Mean Compound 1 Plasma Concentration, oral 2 mg/kg, Day 14, 0.5 h, Female
  concentration at 0.5 h: 150 ng/mL
2 mg/kg, Mean Compound 1 Plasma Concentration, oral 2 mg/kg, Day 14, 1 h, Female
  concentration at 1 h: 111 ng/mL
2 mg/kg, Mean Compound 1 Plasma Concentration, oral 2 mg/kg, Day 14, 2 h, Female
  concentration at 2 h: 212 ng/mL
2 mg/kg, Mean Compound 1 Plasma Concentration, oral 2 mg/kg, Day 14, 8 h, Female
  concentration at 8 h: 117 ng/mL
2 mg/kg, Mean Compound 1 Plasma Concentration, oral 2 mg/kg, Day 14, 12 h, Female
  concentration at 12 h: 48.7 ng/mL
2 mg/kg, Mean Compound 1 Plasma Concentration, oral 2 mg/kg, Day 14, 24 h, Female
  concentration at 24 h: 10.8 ng/mL
2 mg/kg, Mean Compound 1 Plasma Concentration, oral 2 mg/kg, Female
  concentration at […]: 10 ng/mL
[1]
  AUC(0-inf): 2160 ng·h/mL
  AUC(0-t): 2060 ng·h/mL
  Cmax: 196 ng/mL
  Tmax: 2 h
  half-life: 5.25 h
[2]
  AUC(0-inf): 1850 ng·h/mL
  AUC(0-t): 1770 ng·h/mL
  Cmax: 212 ng/mL
  Tmax: 2 h
  half-life: 4.83 h
5 mg/kg, Individual Compound 1 Plasma Concentration, daily oral 5 mg/kg, Day 1, Female, 0.5 h
  concentration at 0.5 h: 246 ng/mL
5 mg/kg, Individual Compound 1 Plasma Concentration, daily oral 5 mg/kg, Day 1, Female, 2 h
  concentration at 2 h: 533 ng/mL
5 mg/kg, Individual Compound 1 Plasma Concentration, daily oral 5 mg/kg, Day 1, Female, 8 h
  concentration at 8 h: 432 ng/mL
5 mg/kg, Individual Compound 1 Plasma Concentration, daily oral 5 mg/kg, Day 1, Female, 24 h
  concentration at 24 h: 23.2 ng/mL
5 mg/kg, Individual Compound 1 Plasma Concentration, daily oral 5 mg/kg, Day 14, Female, 1 h
  concentration at 1 h: 428 ng/mL
5 mg/kg, Individual Compound 1 Plasma Concentration, daily oral 5 mg/kg, Day 14, Female, 4 h
  concentration at 4 h: 423 ng/mL
5 mg/kg, Individual Compound 1 Plasma Concentration, daily oral 5 mg/kg, Day 14, Female, 8 h
  concentration at 8 h: 234 ng/mL
5 mg/kg, Individual Compound 1 Plasma Concentration, daily oral 5 mg/kg, Day 14, Female, 12 h
  concentration at 12 h: 112 ng/mL
5 mg/kg, Individual Compound 1 Plasma Concentration, daily oral 5 mg/kg, Day 14, Female, 24 h
  concentration at 24 h: 22.2 ng/mL
5 mg/kg, Mean Compound 1 Plasma Concentration, oral 5 mg/kg, Day 1, 0.5 h, Female
  concentration at 0.5 h: 267 ng/mL
5 mg/kg, Mean Compound 1 Plasma Concentration, oral 5 mg/kg, Day 1, 1 h, Female
  concentration at 1 h: 406 ng/mL
5 mg/kg, Mean Compound 1 Plasma Concentration, oral 5 mg/kg, Day 1, 2 h, Female
  concentration at 2 h: 528 ng/mL
5 mg/kg, Mean Compound 1 Plasma Concentration, oral 5 mg/kg, Day 1, 4 h, Female
  concentration at 4 h: 482 ng/mL
5 mg/kg, Mean Compound 1 Plasma Concentration, oral 5 mg/kg, Day 1, 8 h, Female
  concentration at 8 h: 360 ng/mL
5 mg/kg, Mean Compound 1 Plasma Concentration, oral 5 mg/kg, Day 1, 12 h, Female
  concentration at 12 h: 140 ng/mL
5 mg/kg, Mean Compound 1 Plasma Concentration, oral 5 mg/kg, Day 1, 24 h, Female
  concentration at 24 h: 18.6 ng/mL
5 mg/kg, Mean Compound 1 Plasma Concentration, oral 5 mg/kg, Day 14, 0.5 h, Female
  concentration at 0.5 h: 382 ng/mL
5 mg/kg, Mean Compound 1 Plasma Concentration, oral 5 mg/kg, Day 14, 1 h, Female
  concentration at 1 h: 519 ng/mL
5 mg/kg, Mean Compound 1 Plasma Concentration, oral 5 mg/kg, Day 14, 2 h, Female
  concentration at 2 h: 493 ng/mL
5 mg/kg, Mean Compound 1 Plasma Concentration, oral 5 mg/kg, Day 14, 4 h, Female
  concentration at 4 h: 439 ng/mL
5 mg/kg, Mean Compound 1 Plasma Concentration, oral 5 mg/kg, Day 14, 8 h, Female
  concentration at 8 h: 255 ng/mL
5 mg/kg, Mean Compound 1 Plasma Concentration, oral 5 mg/kg, Day 14, 12 h, Female
  concentration at 12 h: 105 ng/mL
5 mg/kg, Mean Compound 1 Plasma Concentration, oral 5 mg/kg, Day 14, 24 h, Female
  concentration at 24 h: 19.2 ng/mL
5 mg/kg, Mean Compound 1 Plasma Concentration, oral 5 mg/kg, Female
  concentration at […]: 70.7 ng/mL
[3]
  AUC(0-inf): 5440 ng·h/mL
  AUC(0-t): 5340 ng·h/mL
  Cmax: 528 ng/mL
  Tmax: 2 h
  half-life: 3.82 h
[4]
  AUC(0-inf): 4740 ng·h/mL
  AUC(0-t): 4620 ng·h/mL
  Cmax: 519 ng/mL
